What all share (assay type): functional
The test system of one assay is Citrobacter. In words: Antimicrobial activity against Citrobacter assessed as resistant isolate by broth microdilution method.
The subject of a further assay is Serratia marcescens. In words: Antimicrobial activity against ceftazidime susceptible Serratia marcescens assessed as susceptible isolate by broth microdilution method in presence of Tazobactam.
The next assay has as its system Klebsiella pneumoniae. In words: Antimicrobial activity against Non-ESBL Klebsiella pneumoniae assessed as intermediate isolate by broth microdilution method in presence of Tazobactam.
Assay [1] deals with Pseudomonas aeruginosa. In words: Antimicrobial activity against imipenem susceptible Pseudomonas aeruginosa by broth microdilution method in presence of Tazobactam.
For assay [2], the system named is Enterobacter cloacae. Nature of the assay: Antimicrobial activity against Enterobacter cloacae with nonderepressed AmpC beta-lactamsae assessed as resistant isolate by broth microdilution method in presence of Tazobactam.
For assay [3], the system named is Pseudomonas aeruginosa. Nature of the assay: Antimicrobial activity against Pseudomonas aeruginosa isolated from ICU patient assessed as resistant isolate by broth microdilution method.
Assay [4] has as its system Acinetobacter. In words: Antimicrobial activity against imipenem non-susceptible Acinetobacter assessed as susceptible isolate by broth microdilution method in presence of Tazobactam.
Assay [5] relates to Acinetobacter. In words: Antimicrobial activity against imipenem non-susceptible Acinetobacter assessed as intermediate isolate by broth microdilution method in presence of Tazobactam.
For assay [6], the system named is Enterobacteriaceae. In words: Antimicrobial activity against Ceftazidime non-susceptible Enterobacteriaceae assessed as intermediate isolate by broth microdilution method in presence of tazobactam.
Assay [7] deals with Pseudomonas aeruginosa. In words: Antimicrobial activity against Pseudomonas aeruginosa isolated from ICU patient assessed as intermediate isolate by broth microdilution method in presence of Tazobactam.
Assay [8] has as its system Enterobacter cloacae. Nature of the assay: Antimicrobial activity against Enterobacter cloacae with nonderepressed AmpC beta-lactamsae by broth microdilution method in presence of Tazobactam.
Assay [9] has as its system Enterobacteriaceae. In words: Antimicrobial activity against ceftazidime-susceptible Enterobacteriaceae assessed as susceptible isolate by broth microdilution method in presence of Tazobactam.
Another assay deals with Proteus mirabilis. Nature of the assay: Antimicrobial activity against ESBL producing Proteus mirabilis by broth microdilution method in presence of Tazobactam.
Assay [10] relates to Enterobacteriaceae. In words: Antimicrobial activity against ceftazidime-susceptible Enterobacteriaceae assessed as intermediate isolate by broth microdilution method in presence of Tazobactam.

For the compound `C[C@@H](O)[C@H]1C(=O)N2C(C(=O)O)=C(SCCNC=N)C[C@H]12` [IMIPENEM ANHYDROUS], the Activity in the assay on Citrobacter was 0.2%.
For `CCN1CCN(C(=O)N[C@@H](C(=O)N[C@@H]2C(=O)N3[C@@H]2SC(C)(C)[C@@H]3C(=O)O)c2ccccc2)C(=O)C1=O` [PIPERACILLIN], the Activity was 93.6% in the assay with Serratia marcescens; 2.4% in the assay on Klebsiella pneumoniae; 3.5% with Enterobacter cloacae [2]; 0% with Acinetobacter [4]; 3.9% in the assay on Acinetobacter [5]; 20.6% in the assay on Enterobacteriaceae [6]. The Activity with Pseudomonas aeruginosa [7] is given as 0%; with Enterobacteriaceae [9], 95.8%; in the assay on Enterobacteriaceae [10] it was 2.3%. Besides, the MIC50 amounted to 16 µg/mL in the assay with Pseudomonas aeruginosa [1], 16 µg/mL in the assay on Pseudomonas aeruginosa [3] and 4 µg/mL in the assay with Enterobacter cloacae [8]. In addition, the MIC90 with Pseudomonas aeruginosa [1] amounted to 64 µg/mL; with Enterobacter cloacae [8], 16 µg/mL. Further, the MIC in the assay with Proteus mirabilis was 0.5 µg/mL.
